Legend:
[1] = test system: MT4; experiment: Compound was evaluated for the antiviral activity in HIV-I IIIB infected MT-4 cells assay; assay type: functional, cell-based; settings: Homo sapiens
[2] = test system: MT4; experiment: Cytotoxic concentration was measured in HIV-I IIIB infected MT-4 cells assay; assay type: functional; settings: Homo sapiens
[3] = molecular target: Human immunodeficiency virus type 1 protease (Human immunodeficiency virus 1, UniProt Q72874); experiment: Compound was evaluated for the inhibitory activity towards HIV protease
[4] = Ratio of compound cytotoxic concentration (CC50) to that of antiviral activity (EC50); assay type: functional

Row | SMILES | IC50 [3] | EC50 [1] | CC50 [2] | SI [4]
1 | CCCC1(CCc2ccccc2)OC(=O)C(C(CC)c2cccc(NS(=O)(=O)c3ccccn3)c2)=C(O)O1 (stereo not given) | 0.013 µM | 86.7 µM | > 178 µM | >2.05
2 | CCC[C@]1(CCc2ccccc2)OC(=O)C([C@H](CC)c2cccc(NS(=O)(=O)c3ccc(C(F)(F)F)cn3)c2)=C(O)O1 (racemic) | 0.05 µM |  |  | 
3 | CCCC1(CCc2ccccc2)OC(=O)C(C(CC)c2cccc(NS(=O)(=O)c3ccc(C#N)cc3)c2)=C(O)O1 (stereo not given) | 0.015 µM | > 66.5 µM | 66.5 µM | <1
4 | CCCC1(CCc2ccccc2)OC(=O)C(C(CC)c2cccc(NS(=O)(=O)c3ccc(C(F)(F)F)cn3)c2)=C(O)O1 (stereo not given) | 0.01 µM | 0.96 µM | 63 µM | 65.69

Second part, led by results:

Row | IC50 [3] | SMILES | EC50 [1] | CC50 [2] | SI [4]
5 | 0.065 µM | CCCC1(CCc2ccccc2)OC(=O)C(C(CC)c2cccc(NS(=O)(=O)c3ccc([N+](=O)[O-])cn3)c2)=C(O)O1 (stereo not given) | > 14.8 µM | 14.8 µM | <1
6 | 0.013 µM | CCCC1(CCc2ccccc2)OC(=O)C(C(CC)c2cccc(NS(=O)(=O)c3ccc(N)cn3)c2)=C(O)O1 (stereo not given) | > 70 µM | 70 µM | <1
7 | 0.003 µM | CCCC1(CCc2ccccc2)OC(=O)C(C(CC)c2cccc(NS(=O)(=O)c3ccc(C#N)cn3)c2)=C(O)O1 (stereo not given) | 11.4 µM | 77 µM | 6.77

From ChEMBL document CHEMBL1132826, “6-Hydroxy-1,3-dioxin-4-ones as non-peptidic HIV protease inhibitors” (Bioorg Med Chem Lett, 2000)
